Results reported in US10413559B2, “Method for treating demyelinating disease” (OCHANOMIZU UNIVERSITY, priority 2013, dated 2019).

Tests used:
[1] = system: demyelination model mice (0.2% cuprizone), corpus callosum; test: Electron microscope observation of myelin structure in corpus callosum; format: in vivo, C57BL/6j mice; details: intraperitoneal 1.6 mg/kg/day for 5 weeks, FIG. 5
From the text: 10-week-old male C57BL/6j mice (Tokyo Laboratory Animals Science Co., Ltd., Tokyo, Japan) were fed by the discretionary intake of a mash feed (CLEA Japan, Inc.) that contained 0.2% cuprizone (biscyclohexanone oxalyl hydrazone; Merck KGaA, Darmstadt, Germany) for 5 weeks until demyelination progressed most, so as to produce demyelination model mice involving demyelination caused by oligodendrocyte-specific cell death.
The cPA used in the experiment was the same cPA (16:0) as that used in Example 1, and the carba-cPA was 2 ccPA (16:1). The cPA and 2 ccPA were chemically purified (Biochimica et Biophysica Acta, Emi Nozaki 2011), and were then dissolved in a 0.9% saline. The cPA and 2 ccPA were continuously administered to mice via intraperitoneal administration for 5 weeks (1.6 mg/kg/day), at the same time with administration of cuprizone. Control mice were fed with a normal mash feed, and a normal saline was continuously administered to the control mice via intraperitoneal administration for 5 weeks.
Five weeks after administration of cuprizone, mice were subjected to perfusion fixation with 4% paraformaldehyde, and the brain was then collected from each mouse. Thereafter, corpus callosum tissues were removed from the brain, were then pre-fixed with 2.5% glutaraldehyde fixative, and were then washed with a 0.1 M cacodylate buffer. […]

[2] = system: demyelination model mice (0.2% cuprizone); test: Test of motor function impairment using rotarod; format: in vivo, C57BL/6j mice; details: intraperitoneal 1.6 mg/kg/day for 5 weeks, 28 rpm, 300 seconds, FIG. 9, FIG. 10
From the text: 10-week-old male C57BL/6j mice (Tokyo Laboratory Animals Science Co., Ltd., Tokyo, Japan) were fed by the discretionary intake of a mash feed (CLEA Japan, Inc.) that contained 0.2% cuprizone (biscyclohexanone oxalyl hydrazone; Merck KGaA, Darmstadt, Germany) for 5 weeks until demyelination progressed most, so as to produce demyelination model mice involving demyelination caused by oligodendrocyte-specific cell death. The cPA used in the experiment was the same cPA (16:0) as that used in Example 1, and the carba-cPA was 2 ccPA (16:1). The cPA and 2 ccPA were chemically purified (Biochimica et Biophysica Acta, Emi Nozaki 2011), and were then dissolved in a 0.9% saline. […] The locomotion time on the rod was evaluated by measuring the time required for the mice to fall from the rotating rod within a record time of 300 seconds. Moreover, even after the mice had fallen from the rod, they were forced to continue their activity immediately after the falling, so that a total number of the activities from falling from the rod to holding on to the rod for 300 seconds (a number of falls and flips) was measured and evaluated. The data of the test of motor function impairment were analyzed according to a non-parametric method using a Kruskal-Wallis test. All of other data were analyzed according to a one-way ANOVA method using a Newman-Keulis test. […]

CCCCCCCCCCCCCCCC(=O)OCC1COP(=O)(O)O1 (centres unmarked) [cPA]
demyelination by electron microscope observation of myelin structure [1]: demyelination is suppressed | motor function impairment (rotarod) [2]: motor function impairment is improved
